Source: the NIST ThermoML archive (doi:10.1016/j.fluid.2016.08.002)

Assay: xn = mol fraction of the nth substance listed
Settings: Gas, Vibrating tube method

S [hydrogen sulfide] + C
Settings | mass density [kg/m3]
273.16 K, 19608 kPa, x2 = 0.714 | 336.94
273.16 K, 22152 kPa, x2 = 0.714 | 354.18
273.16 K, 22483 kPa, x2 = 0.714 | 356.27
273.17 K, 12519 kPa, x2 = 0.8197 | 177.81
273.18 K, 22828 kPa, x2 = 0.714 | 358.14
273.19 K, 21199 kPa, x2 = 0.714 | 347.78
273.19 K, 24981 kPa, x2 = 0.714 | 368.95
273.2 K, 20623 kPa, x2 = 0.714 | 344.02
273.2 K, 23590 kPa, x2 = 0.714 | 362.19
273.21 K, 209 kPa, x2 = 0.8685 | 1.7
273.21 K, 648 kPa, x2 = 0.8685 | 5.39
273.21 K, 21506 kPa, x2 = 0.714 | 349.84
273.22 K, 26410 kPa, x2 = 0.714 | 375.25
273.23 K, 20100 kPa, x2 = 0.714 | 340.42
273.23 K, 25533 kPa, x2 = 0.714 | 371.48
273.24 K, 1167 kPa, x2 = 0.8685 | 10
273.24 K, 1761 kPa, x2 = 0.8685 | 15.44
273.24 K, 27020 kPa, x2 = 0.714 | 377.85
273.25 K, 2240 kPa, x2 = 0.8685 | 19.97
273.25 K, 3776 kPa, x2 = 0.8685 | 35.41
273.25 K, 11361 kPa, x2 = 0.8685 | 140.37
273.25 K, 24591 kPa, x2 = 0.714 | 367.01
273.25 K, 26031 kPa, x2 = 0.714 | 373.67
273.25 K, 30481 kPa, x2 = 0.8685 | 300.13
273.26 K, 2770 kPa, x2 = 0.8685 | 25.12
273.26 K, 4666 kPa, x2 = 0.8685 | 45.13
273.26 K, 5086 kPa, x2 = 0.8685 | 49.93
273.26 K, 11062 kPa, x2 = 0.8685 | 135.65
273.26 K, 11726 kPa, x2 = 0.8685 | 146.08
273.26 K, 12002 kPa, x2 = 0.8685 | 150.33
273.26 K, 12322 kPa, x2 = 0.8685 | 155.19
273.26 K, 12637 kPa, x2 = 0.8685 | 159.86
273.26 K, 13040 kPa, x2 = 0.8685 | 165.72
273.26 K, 27255 kPa, x2 = 0.8685 | 285.03
273.26 K, 28276 kPa, x2 = 0.8685 | 290.05
273.26 K, 29372 kPa, x2 = 0.8685 | 295.19
273.27 K, 3280 kPa, x2 = 0.8685 | 30.25
273.27 K, 4207 kPa, x2 = 0.8685 | 40.03
273.27 K, 4225 kPa, x2 = 0.8685 | 40.23
273.27 K, 9149 kPa, x2 = 0.8685 | 105.29
273.27 K, 9851 kPa, x2 = 0.8685 | 116.33
273.27 K, 13466 kPa, x2 = 0.8685 | 171.7
273.27 K, 13771 kPa, x2 = 0.8685 | 175.85
273.27 K, 24569 kPa, x2 = 0.8685 | 270.52
273.27 K, 25361 kPa, x2 = 0.8685 | 275.02
273.27 K, 26319 kPa, x2 = 0.8685 | 280.21
273.28 K, 5512 kPa, x2 = 0.8685 | 54.98
273.28 K, 5933 kPa, x2 = 0.8685 | 60.12
273.28 K, 8496 kPa, x2 = 0.8685 | 95.31
273.28 K, 9596 kPa, x2 = 0.8685 | 112.28
273.28 K, 10137 kPa, x2 = 0.8685 | 120.88
273.29 K, 8136 kPa, x2 = 0.8685 | 89.96
273.29 K, 8809 kPa, x2 = 0.8685 | 100.05
273.29 K, 10446 kPa, x2 = 0.8685 | 125.82
273.29 K, 10749 kPa, x2 = 0.8685 | 130.66
273.29 K, 23690 kPa, x2 = 0.8685 | 265.29
273.3 K, 6333 kPa, x2 = 0.8685 | 65.17
273.3 K, 14847 kPa, x2 = 0.8685 | 189.62
273.31 K, 6712 kPa, x2 = 0.8685 | 70.1
273.31 K, 7200 kPa, x2 = 0.8685 | 76.68
273.31 K, 7483 kPa, x2 = 0.8685 | 80.6
273.31 K, 7817 kPa, x2 = 0.8685 | 85.33
273.31 K, 15329 kPa, x2 = 0.8685 | 195.37
273.31 K, 22905 kPa, x2 = 0.8685 | 260.37
273.32 K, 15811 kPa, x2 = 0.8685 | 200.85
